Here are results for 2 compounds from ChEMBL document CHEMBL4007394, “Type I DNA Topoisomerases” (J Med Chem, 2017).

pIC50: −log10 of the molar value.

Experiment [1] deals with Bifunctional 3'-5' exonuclease/ATP-dependent helicase WRN (Homo sapiens, UniProt Q14191). Description: Inhibition of recombinant WRN (unknown origin) helicase activity expressed in baculovirus expression system using forked duplex DNA as substrate after 15 mins by polyacrylamide gel electrophoresis.
A short description of experiment [2]: Inhibition of recombinant Streptococcus pneumoniae R6 topoisomerase-1 expressed in Escherichia coli assessed as reduction in enzyme-catalyzed relaxation of supercoiled pBR322 DNA preincubated for 10 mins by ethidium bromide staining based electrophoresis.

Sequence of Bifunctional 3'-5' exonuclease/ATP-dependent helicase WRN (Q14191 whole entry): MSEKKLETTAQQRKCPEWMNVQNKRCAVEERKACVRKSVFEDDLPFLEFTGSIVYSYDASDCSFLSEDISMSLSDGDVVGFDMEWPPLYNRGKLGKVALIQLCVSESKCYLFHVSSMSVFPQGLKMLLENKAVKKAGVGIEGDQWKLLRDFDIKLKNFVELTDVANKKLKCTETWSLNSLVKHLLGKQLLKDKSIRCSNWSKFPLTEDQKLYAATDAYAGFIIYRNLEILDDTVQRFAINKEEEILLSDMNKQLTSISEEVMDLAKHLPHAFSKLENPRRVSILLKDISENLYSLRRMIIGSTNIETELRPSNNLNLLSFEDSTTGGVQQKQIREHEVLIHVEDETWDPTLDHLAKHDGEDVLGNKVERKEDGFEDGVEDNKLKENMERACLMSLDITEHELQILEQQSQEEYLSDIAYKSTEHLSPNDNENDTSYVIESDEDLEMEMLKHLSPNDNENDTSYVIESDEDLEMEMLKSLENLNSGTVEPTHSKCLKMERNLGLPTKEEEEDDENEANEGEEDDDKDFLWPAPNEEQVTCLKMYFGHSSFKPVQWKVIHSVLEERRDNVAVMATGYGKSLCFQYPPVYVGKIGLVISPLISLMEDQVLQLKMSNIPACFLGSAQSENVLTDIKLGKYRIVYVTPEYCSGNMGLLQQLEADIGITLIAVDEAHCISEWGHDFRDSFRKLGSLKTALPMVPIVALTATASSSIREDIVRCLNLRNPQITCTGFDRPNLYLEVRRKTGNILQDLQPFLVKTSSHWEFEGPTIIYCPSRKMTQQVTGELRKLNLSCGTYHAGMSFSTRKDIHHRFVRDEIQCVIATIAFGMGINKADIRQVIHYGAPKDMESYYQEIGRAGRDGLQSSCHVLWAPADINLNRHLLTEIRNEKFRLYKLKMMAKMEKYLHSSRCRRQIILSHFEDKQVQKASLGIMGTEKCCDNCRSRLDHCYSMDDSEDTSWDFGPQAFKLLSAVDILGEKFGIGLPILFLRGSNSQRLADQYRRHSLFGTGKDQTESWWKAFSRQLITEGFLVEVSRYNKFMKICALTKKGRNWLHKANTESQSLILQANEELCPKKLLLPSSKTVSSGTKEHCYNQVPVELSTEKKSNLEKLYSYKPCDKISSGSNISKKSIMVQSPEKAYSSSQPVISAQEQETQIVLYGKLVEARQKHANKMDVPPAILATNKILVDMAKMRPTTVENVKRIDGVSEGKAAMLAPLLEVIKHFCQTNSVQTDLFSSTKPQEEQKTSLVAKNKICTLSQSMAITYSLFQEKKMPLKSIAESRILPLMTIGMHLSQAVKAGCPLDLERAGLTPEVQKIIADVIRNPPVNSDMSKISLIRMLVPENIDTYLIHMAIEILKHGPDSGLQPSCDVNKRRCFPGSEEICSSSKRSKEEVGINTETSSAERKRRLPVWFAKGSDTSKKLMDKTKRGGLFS

Consider `CCC(=O)OCN1C(=O)C=CC1=O`, for which, in experiment [1], the pIC50 was 5.52.

As for `CNCCc1cc2c(c3c1ccc1cc4c(cc13)OCO4)OCO2`, in experiment [2], the pIC50 was 4.77.
